SMILES strings stand for the structures.

The values below come from US20090036448A1, “PYRIMIDINE DERIVATIVES AND METHODS OF TREATMENT RELATED TO THE USE THEREOF” (TAISHO PHARMECUTICAL CO., LTD., priority 2004, published 2009).

The assay addresses MCH receptor (Homo sapiens, UniProt Q99705). The assay can be described thus: Receptor binding assay with Radiolabelled MCH Ligand. The settings on record: class by percent of control at 10^-7 M or IC50. Set-up: expressed in transfected cells; host or cells: 293 cells (human kidney, ATCC), transient transfection; crude membranes. Summed up:
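This was a filtration radioligand displacement assay: compounds, first tested at 1 and 0.1 μM and then over a range, inhibited binding of a labelled MCH ligand to transfected 293-cell membranes at room temperature for 60–120 min. Specific binding excluded a cold-MCH nonspecific signal. Ki was derived from IC50 via Cheng-Prusoff, using an independently measured KD.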

Sequence of MCH receptor (Q99705 whole entry): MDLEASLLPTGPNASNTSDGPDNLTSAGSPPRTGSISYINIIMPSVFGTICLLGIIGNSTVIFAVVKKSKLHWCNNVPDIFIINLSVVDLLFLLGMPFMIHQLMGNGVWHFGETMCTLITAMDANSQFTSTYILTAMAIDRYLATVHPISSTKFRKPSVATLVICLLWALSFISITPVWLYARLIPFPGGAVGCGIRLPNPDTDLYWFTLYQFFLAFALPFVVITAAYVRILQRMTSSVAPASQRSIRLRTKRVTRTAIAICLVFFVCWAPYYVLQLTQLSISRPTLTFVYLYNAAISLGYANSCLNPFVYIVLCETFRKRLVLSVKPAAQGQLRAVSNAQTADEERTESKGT

Consider `Cc1nc(N[C@H]2CC[C@@H](NC(=O)c3ccc(-c4cnco4)cc3)CC2)cc(N(C)C)n1` [compound 347], for which the class was 3 (Class 3: The value of percent of control at 10^−7 M was more than 60% or the value of IC50 was more than 200 nM.).
The value for `Cc1nc(N[C@H]2CC[C@@H](NC(=O)C=C3c4ccccc4-c4ccccc43)CC2)cc(N(C)C)n1` [compound 352] was 3 (Class 3: The value of percent of control at 10^−7 M was more than 60% or the value of IC50 was more than 200 nM.).
As for `CCCCCCCCCc1ccc(CN[C@H]2CC[C@@H](Nc3cc(N(C)C)nc(C)n3)CC2)cc1` [compound 399], the figure is 3 (Class 3: The value of percent of control at 10^−7 M was more than 60% or the value of IC50 was more than 200 nM.); as for `Cc1nc(N[C@H]2CC[C@@H](NCc3cnn(-c4ccccc4)c3C(F)(F)F)CC2)cc(N(C)C)n1` [compound 384], 3 (Class 3: The value of percent of control at 10^−7 M was more than 60% or the value of IC50 was more than 200 nM.).
Consider `CCCCCCCCOC(=O)N[C@H]1CC[C@@H](Nc2cc(N(C)C)nc(C)n2)CC1` [compound 458], for which the class is 3 (Class 3: The value of percent of control at 10^−7 M was more than 60% or the value of IC50 was more than 200 nM.).
On to `Cc1nc(N[C@H]2CC[C@@H](NC(=O)C3CC(=O)N(Cc4cccs4)C3)CC2)cc(N(C)C)n1` (relative stereo) [compound 282], for which the class is 3 (Class 3: The value of percent of control at 10^−7 M was more than 60% or the value of IC50 was more than 200 nM.).
As for `Cc1nc(N[C@H]2CC[C@@H](NC(=O)Cc3nc(-c4ccccc4)sc3C)CC2)cc(N(C)C)n1` [compound 289], the figure is 3 (Class 3: The value of percent of control at 10^−7 M was more than 60% or the value of IC50 was more than 200 nM.); as for `Cc1nc(N[C@H]2CC[C@@H](NC(=O)OCc3ccccc3)CC2)cc(N(C)C)n1` [compound 463], 3 (Class 3: The value of percent of control at 10^−7 M was more than 60% or the value of IC50 was more than 200 nM.).
As for `Cc1nc(N[C@H]2CC[C@@H](NC(=O)c3ccccc3-c3ccccc3)CC2)cc(N(C)C)n1` [compound 325], the figure is 3 (Class 3: The value of percent of control at 10^−7 M was more than 60% or the value of IC50 was more than 200 nM.); as for `Cc1nc(N[C@H]2CC[C@@H](NS(=O)(=O)c3ccc(-c4cc(C(F)(F)F)nn4C)s3)CC2)cc(N(C)C)n1` [compound 515], 3 (Class 3: The value of percent of control at 10^−7 M was more than 60% or the value of IC50 was more than 200 nM.); as for `Cc1nc(N[C@H]2CC[C@@H](NC(=O)NC(c3ccccc3)c3ccccc3)CC2)cc(N(C)C)n1` [compound 414], 3 (Class 3: The value of percent of control at 10^−7 M was more than 60% or the value of IC50 was more than 200 nM.).
Take `Cc1nc(N[C@H]2CC[C@@H](NS(=O)(=O)c3cccc(F)c3)CC2)cc(N(C)C)n1` [compound 503]: the class was 3 (Class 3: The value of percent of control at 10^−7 M was more than 60% or the value of IC50 was more than 200 nM.).
`Cc1nc(N[C@H]2CC[C@@H](NCc3ccccc3I)CC2)cc(N(C)C)n1` [compound 375]: the class is reported as 3 (Class 3: The value of percent of control at 10^−7 M was more than 60% or the value of IC50 was more than 200 nM.).
As for `Cc1ccc(CN[C@H]2CC[C@@H](Nc3cc(N(C)C)nc(C)n3)CC2)cc1` [compound 387], the figure is 3 (Class 3: The value of percent of control at 10^−7 M was more than 60% or the value of IC50 was more than 200 nM.); as for `Cc1nc(N[C@H]2CC[C@@H](NC(=O)CC(C)S(=O)(=O)c3ccc(Cl)cc3)CC2)cc(N(C)C)n1` (relative stereo) [compound 281], 3 (Class 3: The value of percent of control at 10^−7 M was more than 60% or the value of IC50 was more than 200 nM.).
Take `Cc1nc(N[C@H]2CC[C@@H](NCc3ccc4ccccc4c3)CC2)cc(N(C)C)n1` [compound 378]: the class is given as 3 (Class 3: The value of percent of control at 10^−7 M was more than 60% or the value of IC50 was more than 200 nM.).
On to `Cc1nc(N[C@H]2CC[C@@H](NS(=O)(=O)Cc3ccc(F)cc3)CC2)cc(N(C)C)n1` [compound 474, N-(cis-4-{[6-(dimethylamino)-2-methylpyrimidim-4-yl]amino}cyclohexyl)-1-(4-fluorophenyl)methanesulfonamide], for which the class is 3 (Class 3: The value of percent of control at 10^−7 M was more than 60% or the value of IC50 was more than 200 nM.).
Take `Cc1nc(N[C@H]2CC[C@@H](NC(=O)c3ccc4nonc4c3)CC2)cc(N(C)C)n1` [compound 207, N-(cis-4-{[6-(dimethylamino)-2-methylpyrimidin-4-y]amino}cyclohexyl)-2,1,3-benzoxadiazole-5-carboxamide]: the class was 3 (Class 3: The value of percent of control at 10^−7 M was more than 60% or the value of IC50 was more than 200 nM.).
`Cc1cccc(NC(=O)c2ccccc2C(=O)N[C@H]2CC[C@@H](Nc3cc(N(C)C)nc(C)n3)CC2)c1` [compound 319]: the class is 3 (Class 3: The value of percent of control at 10^−7 M was more than 60% or the value of IC50 was more than 200 nM.).
The value for `Cc1nc(N[C@H]2CC[C@@H](NC(=O)c3ccc4c(c3)C(=O)c3ccccc3-4)CC2)cc(N(C)C)n1` [compound 324] was 3 (Class 3: The value of percent of control at 10^−7 M was more than 60% or the value of IC50 was more than 200 nM.); that for `Cc1nc(N[C@H]2CC[C@@H](NC(=O)c3ccco3)CC2)cc(N(C)C)n1` [compound 222] was 3 (Class 3: The value of percent of control at 10^−7 M was more than 60% or the value of IC50 was more than 200 nM.); that for `Cc1nc(N[C@H]2CC[C@@H](NC(=O)Oc3ccccc3)CC2)cc(N(C)C)n1` [compound 464, phenyl (cis-4-{[6-(dimethylamino)-2-methylpyrimidin-4-yl]amino}cyclohexyl)carbamate] was 3 (Class 3: The value of percent of control at 10^−7 M was more than 60% or the value of IC50 was more than 200 nM.).
The value for `Cc1nc(N[C@H]2CC[C@@H](NC(=O)c3nn(-c4ccccc4)nc3C)CC2)cc(N(C)C)n1` [compound 228] was 3 (Class 3: The value of percent of control at 10^−7 M was more than 60% or the value of IC50 was more than 200 nM.); that for `Cc1nc(N[C@H]2CC[C@@H](NC(=S)Nc3c(F)cc(Br)cc3Br)CC2)cc(N(C)C)n1` [compound 448] was 3 (Class 3: The value of percent of control at 10^−7 M was more than 60% or the value of IC50 was more than 200 nM.).
`COc1ccc(CC(=O)N[C@H]2CC[C@@H](Nc3cc(N(C)C)nc(C)n3)CC2)cc1OC` [compound 245]: the class is reported as 3 (Class 3: The value of percent of control at 10^−7 M was more than 60% or the value of IC50 was more than 200 nM.).
As for `COc1ccc(NC(=O)N[C@H]2CC[C@@H](Nc3cc(N(C)C)nc(C)n3)CC2)cc1OC1CCCC1` [compound 427], the figure is 3 (Class 3: The value of percent of control at 10^−7 M was more than 60% or the value of IC50 was more than 200 nM.); as for `CCOc1ccccc1NC(=S)N[C@H]1CC[C@@H](Nc2cc(N(C)C)nc(C)n2)CC1` [compound 446], 3 (Class 3: The value of percent of control at 10^−7 M was more than 60% or the value of IC50 was more than 200 nM.).
Consider `Cc1nc(N[C@H]2CC[C@@H](NS(=O)(=O)c3cccc4cccnc34)CC2)cc(N(C)C)n1` [compound 522], for which the class is reported as 3 (Class 3: The value of percent of control at 10^−7 M was more than 60% or the value of IC50 was more than 200 nM.).
The value for `Cc1nc(N[C@H]2CC[C@@H](NS(=O)(=O)c3sc4ccc(Cl)cc4c3C)CC2)cc(N(C)C)n1` [compound 511] was 3 (Class 3: The value of percent of control at 10^−7 M was more than 60% or the value of IC50 was more than 200 nM.); that for `Cc1nc(N[C@H]2CC[C@@H](NC(=O)OCC(C)(C)C)CC2)cc(N(C)C)n1` [compound 452] was 3 (Class 3: The value of percent of control at 10^−7 M was more than 60% or the value of IC50 was more than 200 nM.); that for `CCC(C)(C)c1ccc(S(=O)(=O)N[C@H]2CC[C@@H](Nc3cc(N(C)C)nc(C)n3)CC2)cc1` [compound 488] was 3 (Class 3: The value of percent of control at 10^−7 M was more than 60% or the value of IC50 was more than 200 nM.).
The value for `Cc1nc(N[C@H]2CC[C@@H](NC(=O)CCCc3ccc([N+](=O)[O-])cc3)CC2)cc(N(C)C)n1` [compound 298] was 3 (Class 3: The value of percent of control at 10^−7 M was more than 60% or the value of IC50 was more than 200 nM.).
The value for `Cc1nc(N[C@H]2CC[C@@H](NC(=O)c3cnn(-c4ccc([N+](=O)[O-])cc4)c3C(F)(F)F)CC2)cc(N(C)C)n1` [compound 233] was 3 (Class 3: The value of percent of control at 10^−7 M was more than 60% or the value of IC50 was more than 200 nM.); that for `CCCCCCCCS(=O)(=O)N[C@H]1CC[C@@H](Nc2cc(N(C)C)nc(C)n2)CC1` [compound 480] was 3 (Class 3: The value of percent of control at 10^−7 M was more than 60% or the value of IC50 was more than 200 nM.).
In the case of `Cc1nc(N[C@H]2CC[C@@H](NS(=O)(=O)c3cc(Cl)c(Oc4ccc([N+](=O)[O-])cc4Cl)c(Cl)c3)CC2)cc(N(C)C)n1` [compound 495], the class was 3 (Class 3: The value of percent of control at 10^−7 M was more than 60% or the value of IC50 was more than 200 nM.).
The value for `Cc1nc(N[C@H]2CC[C@@H](NC(=O)C3c4ccccc4Oc4ccccc43)CC2)cc(N(C)C)n1` [compound 327, N-(cis-4-{[6-(dimethylamino)-2-methylpyrimidin-4-yl]amino}cyclohexyl)-9H-xanthene-9-carboxamide] was 3 (Class 3: The value of percent of control at 10^−7 M was more than 60% or the value of IC50 was more than 200 nM.).
